Data reported in ChEMBL document CHEMBL1201862, “PubChem BioAssay data set” (2004).
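Cells were grown in 96-well plates and exposed to each compound for 48 hours at five concentrations; endpoints were interpolated linearly between bracketing concentrations, or set to the highest concentration if not reached. The concentration for 50% growth inhibition is given as GI50.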 Activity calls are given as the source filed them. Cut-off read from the data, not from the text of the source: active = GI50 up to about 1.1 µM and inactive = higher.

Columns and labels:
Assay in all cases: NCI-60 cell line screen, 48 h
[1] = test system: 786-0
[2] = test system: A549
[3] = test system: ACHN
[4] = test system: DMS-114
[5] = test system: EKVX
[6] = test system: M14
[7] = test system: MOLT-4
[8] = test system: OVCAR-5
[9] = test system: SF-268
[10] = test system: SK-MEL-5
[11] = test system: SNB-19
[12] = test system: SNB-75
[13] = test system: U-251
[14] = test system: UACC-257
[15] = test system: UACC-62
[16] = test system: HL-60
[17] = test system: SR
[18] = test system: BT-549
[19] = test system: Hs-578T
[20] = test system: NCI/ADR-RES

Measured: GI50

CCc1cccc(C(C)CC)c1NC(=O)CC1C(=O)Nc2ccccc2S1(=O)=O (stereo not drawn)
inactive: [1] 15.4 µM | [2] 24.8 µM | [3] 23.6 µM | [4] 13.5 µM | [5] 7.05 µM | [6] 41.4 µM | [7] 11.8 µM | [8] 70.1 µM | [9] 25.8 µM | [10] 45.9 µM | [11] 13.4 µM | [12] 14.8 µM | [13] 40.3 µM | [14] 42.3 µM | [15] 22.3 µM

Nn1c(S)nnc1N/N=C1/C(=O)Nc2c(Cl)cc(Cl)cc21
inactive: [1] 97.3 µM | [2] > 100 µM | [3] 76.9 µM | [4] > 100 µM | [5] > 100 µM | [16] 69.2 µM | [6] > 100 µM | [7] 37.2 µM | [8] > 100 µM | [9] > 100 µM | [10] > 100 µM | [11] 76 µM | [17] 38.3 µM | [13] > 100 µM | [14] > 100 µM | [15] > 100 µM

CCOc1nc(OCC)nc(-c2cccn2-c2ccccc2)n1
inactive: [1] 45.1 µM | [2] 37.1 µM | [3] 32.2 µM | [4] 27.7 µM | [5] 38.2 µM | [16] 21.7 µM | [6] 38.3 µM | [7] 17.7 µM | [8] 74.1 µM | [9] 46.5 µM | [11] 31.4 µM | [17] 26.3 µM | [13] 18.5 µM | [14] 40.5 µM | [15] 27.7 µM

COc1ccc(-c2c(C3=NCCCN3)nnn2-c2ccccc2)cc1
inactive: [1] > 100 µM | [2] > 100 µM | [3] > 100 µM | [4] > 100 µM | [5] > 100 µM | [16] > 100 µM | [6] > 100 µM | [7] > 100 µM | [8] > 100 µM | [9] > 100 µM | [10] > 100 µM | [11] > 100 µM | [12] 47.4 µM | [17] > 100 µM | [13] > 100 µM | [14] > 100 µM | [15] > 100 µM

C[Si](C)(C)/C=C/CN1C(=O)CCC1O (stereo not drawn)
inactive: [1] > 100 µM | [2] > 100 µM | [3] > 100 µM | [4] > 100 µM | [5] > 100 µM | [16] > 100 µM | [6] > 100 µM | [7] > 100 µM | [8] > 100 µM | [9] > 100 µM | [10] > 100 µM | [11] > 100 µM | [12] > 100 µM | [17] > 100 µM | [13] > 100 µM | [14] > 100 µM | [15] > 100 µM

O=C1N[C@@H]2c3c(Br)sc(Br)c3C(=O)[C@@H]2N1
inactive: [1] 2.41 µM | [2] 12.6 µM | [3] 4.02 µM | [18] 17 µM | [5] 4.08 µM | [16] 2.14 µM | [19] 8.28 µM | [6] 3.82 µM | [7] 2.76 µM | [20] 15.4 µM | [8] 17.2 µM | [9] 3.33 µM | [10] 9.29 µM | [11] 11.3 µM | [12] 7.73 µM | [17] 1.74 µM | [13] 2.53 µM | [14] 3.3 µM | [15] 4.73 µM

Nc1ccc2nc(Nc3ccc(Cl)c(Cl)c3)cnc2c1
inactive: [1] 15.5 µM | [2] 15.7 µM | [3] 22.2 µM | [4] 10 µM | [5] 26.8 µM | [16] 8.47 µM | [6] 14.3 µM | [7] 1.6 µM | [8] 19.1 µM | [9] 13.9 µM | [10] 37.2 µM | [11] 17.3 µM | [12] 82.6 µM | [17] 2.44 µM | [13] 19.4 µM | [14] 25.8 µM

CCN1C=C/C(=C\C=C\c2cc[n+](CC)c3ccccc23)c2ccccc21
active: [16] 0.0135 µM
inactive: [1] 4.9 µM | [2] 3.77 µM | [3] 11.9 µM | [18] 20.7 µM | [5] 18.9 µM | [19] 4.02 µM | [6] 5.02 µM | [7] 3.2 µM | [20] 64.4 µM | [8] 4.12 µM | [9] 4.99 µM | [10] 8.99 µM | [11] 4.17 µM | [12] 2.64 µM | [17] 3.33 µM | [13] 3.8 µM | [14] 3.18 µM | [15] 10.8 µM

CCOP(=O)(OCC)Oc1c(OC)c2[nH]c(C(=O)OC)cc2c2c(C(=O)O)c[nH]c12
inactive: [1] > 100 µM | [2] > 100 µM | [3] > 100 µM | [18] > 100 µM | [5] > 100 µM | [16] > 100 µM | [19] > 100 µM | [6] > 100 µM | [7] > 100 µM | [20] > 100 µM | [8] > 100 µM | [9] > 100 µM | [10] > 100 µM | [11] > 100 µM | [12] > 100 µM | [17] > 100 µM | [13] > 100 µM | [14] > 100 µM | [15] > 100 µM

O=C(C1OC1c1ccc(O)cc1)C12CC3CC(CC(C3)C1)C2 (stereo not drawn)
inactive: [1] 31.6 µM | [2] 95.3 µM | [3] 42 µM | [18] 31.2 µM | [5] > 58.1 µM | [16] 10.9 µM | [19] > 100 µM | [6] > 64.3 µM | [7] 17.8 µM | [20] 52.1 µM | [8] > 100 µM | [9] > 87.1 µM | [10] 61.7 µM | [11] > 100 µM | [12] > 100 µM | [17] 30.1 µM | [13] > 76 µM | [14] 57 µM | [15] 40.1 µM

CC(=O)OCC1OC(N=[N+]=[N-])C(OC(C)=O)C(OC(C)=O)C1OC1OC(COC(C)=O)C(OC(C)=O)C(OC(C)=O)C1OC(C)=O (stereo not drawn)
inactive: [1] > 100 µM | [2] > 100 µM | [3] > 100 µM | [4] > 100 µM | [5] > 100 µM | [16] > 100 µM | [6] > 100 µM | [7] > 100 µM | [8] > 100 µM | [9] > 100 µM | [10] > 100 µM | [11] 64.1 µM | [12] 20.5 µM | [13] > 100 µM | [14] > 100 µM | [15] > 100 µM

CC1(c2cccs2)CC(c2cccs2)=C(C#N)C(=C(C#N)C#N)N1 (stereo not drawn)
inactive: [1] 17.3 µM | [2] 22 µM | [3] 17.5 µM | [18] 21.5 µM | [5] 18.1 µM | [16] 10.1 µM | [19] 30.9 µM | [6] 20.4 µM | [7] 44.7 µM | [20] 21.3 µM | [8] 21.5 µM | [9] 18.2 µM | [10] 14.6 µM | [11] 18.7 µM | [12] 18.8 µM | [17] 18 µM | [13] 15.8 µM | [14] 17.6 µM | [15] 15 µM

CC(C)Oc1cc(O)c2c(c1)OCC=C2CCC(=O)O
inactive: [1] 26.3 µM | [2] 28.1 µM | [3] 22.1 µM | [18] 31.3 µM | [5] 17.3 µM | [16] 20.6 µM | [19] 42.2 µM | [6] 25.9 µM | [7] 23.8 µM | [20] 28.4 µM | [8] 31.8 µM | [9] 40.6 µM | [10] 18.4 µM | [11] 38 µM | [12] 31 µM | [17] 34 µM | [13] 67.1 µM | [14] 20.2 µM | [15] 26.9 µM

COC(=O)c1csc(-c2nc(CCNC(=O)OC(C)(C)C)sc2Br)n1
inactive: [1] > 100 µM | [2] > 100 µM | [3] > 100 µM | [18] > 100 µM | [5] > 100 µM | [16] > 100 µM | [19] > 100 µM | [6] > 100 µM | [7] > 100 µM | [20] > 100 µM | [8] > 100 µM | [9] > 100 µM | [10] > 100 µM | [11] > 100 µM | [12] > 100 µM | [17] 81.8 µM | [13] > 100 µM | [14] > 100 µM | [15] > 100 µM

COc1cc(/N=N/c2cccc(S(N)(=O)=O)c2)c2ccccc2c1N
inactive: [1] 13.4 µM | [2] 14 µM | [3] 15.5 µM | [18] 7.33 µM | [5] 13.8 µM | [16] 5.2 µM | [19] 2.67 µM | [6] 1.91 µM | [7] 5.65 µM | [20] 22 µM | [8] 17.5 µM | [9] 15 µM | [10] 1.8 µM | [11] 14.6 µM | [12] 1.98 µM | [17] 11.3 µM | [13] 7.48 µM | [14] 1.54 µM | [15] 2.07 µM

O=C1Nc2ccccc2NC1C1OC(c2ccccc2)=CC1=O (stereo not drawn)
inactive: [1] > 100 µM | [2] > 100 µM | [3] > 100 µM | [18] > 100 µM | [5] > 100 µM | [16] > 100 µM | [19] > 100 µM | [6] > 100 µM | [7] > 100 µM | [20] 82.2 µM | [8] > 100 µM | [9] > 100 µM | [10] > 100 µM | [11] > 100 µM | [12] > 100 µM | [17] > 100 µM | [13] > 100 µM | [14] 40.8 µM | [15] > 100 µM
